From patent US12084430B2, “Tricyclic urea compounds as JAK2 V617F inhibitors” (Incyte Corporation, priority 2022, dated 2024)
Read-outs that look alike come from different tables or passages of the source.

Columns and labels:
[1] = biological target: T1, catalytic domain (JH1, amino acids 826-1132) of human JAK2 (Homo sapiens, UniProt O60674); test: JAK2 LanthaScreen JH1 binding assay; settings: read-out: JH1 Bind IC50
T1 construct: catalytic domain (JH1, amino acids 826-1132) of human JAK2; FLAG (N); biotin (biotinylated); purchased Carna Biosciences 08-445-20N; host or cells: baculovirus expression system
Experimental: Example A. JAK2 LanthaScreen […] Binding Assay
JAK2 JH1 binding assay utilizes catalytic domain (JH1, amino acids 826-1132) of human JAK2 expressed as N-terminal FLAG-tagged, biotinylated protein in a baculovirus expression system (Carna Biosciences, Product #08-445-20N). The assay was conducted in black 384-well polystyrene plates in a final reaction volume of 20 μL. JAK2 JH1 (1.5 nM) was incubated with compounds (100 nL serially diluted in DMSO) in the presence of 50 nM fluorescent JAK2-JH1 tracer and 0.5 nM Streptavidin-Tb cryptate (Cisbio Part #610SATLB) in assay buffer (50 mM Tris, pH=7.5, 10 mM MgCl2, 0.01% Brij-35, 0.1% BSA, 1 mM EGTA, 5% Glycerol and 5 mM DTT). Non-specific binding was accessed in the presence of 2 mM ATP. After incubation for 2 hours at 25° C., LanthaScreen signals were read on a PHERAstar FS plate reader (BMG LABTECH). Data was analyzed with IDBS XLfit and GraphPad Prism 5.0 software using a four parameter dose response curve to determine IC50 for each compound.

[2] = biological target: T2, pseudo-kinase domain (JH2) of human V617F mutant JAK2 (Homo sapiens, UniProt O60674, F794H/V617F/W659A/W777A); test: JAK2 LanthaScreen JH2-V617F binding assay; settings: read-out: JH2 V617F Bind IC50
T2 construct: pseudo-kinase domain (JH2, amino-acids 536-812 with 3 surface mutations W659A, W777A, F794H); His (C); purchased BPS Bioscience 79498; host or cells: baculovirus expression system
Experimental: Example B. JAK2 LanthaScreen JH2-V617F Binding Assay
JAK2 JH2-V617F binding assay utilizes pseudo-kinase domain (JH2, amino-acids 536-812 with 3 surface mutations W659A, W777A, F794H) of human V617F mutant JAK2 expressed as C-terminal His-Avi-tagged, biotinylated protein in a baculovirus expression system (BPS Bioscience, Catalog #79498). The assay was conducted in black 384-well polystyrene plates in a final reaction volume of 20 μL. JAK2 JH2-V617F (0.26 nM) was incubated with compounds (100 nL serially diluted in DMSO) in the presence of 50 nM Fluorescent JAK2-JH2 Tracer (MedChem Express Catalog #HY-102055) and 0.25 nM Streptavidin-Tb cryptate (Cisbio Part #610SATLB) in assay buffer (50 mM Tris, pH=7.5, 10 mM MgCl2, 0.01% Brij-35, 0.1% BSA, 1 mM EGTA, 5% Glycerol and 5 mM DTT). Non-specific binding was accessed in the presence of 2 mM ATP. After incubation for 1 hour at 25° C., LanthaScreen signals were read on a PHERAstar FS plate reader (BMG LABTECH). Data was analyzed with IDBS XLfit and GraphPad Prism 5.0 software using a four parameter dose response curve to determine IC50 for each compound.

FLT3 = biological target: T3, FLT3 (Homo sapiens, UniProt P36888); test: FLT3 enzymatic assay; assay type: biochemical; settings: 1 mM ATP
T3 sequence (P36888 27-993): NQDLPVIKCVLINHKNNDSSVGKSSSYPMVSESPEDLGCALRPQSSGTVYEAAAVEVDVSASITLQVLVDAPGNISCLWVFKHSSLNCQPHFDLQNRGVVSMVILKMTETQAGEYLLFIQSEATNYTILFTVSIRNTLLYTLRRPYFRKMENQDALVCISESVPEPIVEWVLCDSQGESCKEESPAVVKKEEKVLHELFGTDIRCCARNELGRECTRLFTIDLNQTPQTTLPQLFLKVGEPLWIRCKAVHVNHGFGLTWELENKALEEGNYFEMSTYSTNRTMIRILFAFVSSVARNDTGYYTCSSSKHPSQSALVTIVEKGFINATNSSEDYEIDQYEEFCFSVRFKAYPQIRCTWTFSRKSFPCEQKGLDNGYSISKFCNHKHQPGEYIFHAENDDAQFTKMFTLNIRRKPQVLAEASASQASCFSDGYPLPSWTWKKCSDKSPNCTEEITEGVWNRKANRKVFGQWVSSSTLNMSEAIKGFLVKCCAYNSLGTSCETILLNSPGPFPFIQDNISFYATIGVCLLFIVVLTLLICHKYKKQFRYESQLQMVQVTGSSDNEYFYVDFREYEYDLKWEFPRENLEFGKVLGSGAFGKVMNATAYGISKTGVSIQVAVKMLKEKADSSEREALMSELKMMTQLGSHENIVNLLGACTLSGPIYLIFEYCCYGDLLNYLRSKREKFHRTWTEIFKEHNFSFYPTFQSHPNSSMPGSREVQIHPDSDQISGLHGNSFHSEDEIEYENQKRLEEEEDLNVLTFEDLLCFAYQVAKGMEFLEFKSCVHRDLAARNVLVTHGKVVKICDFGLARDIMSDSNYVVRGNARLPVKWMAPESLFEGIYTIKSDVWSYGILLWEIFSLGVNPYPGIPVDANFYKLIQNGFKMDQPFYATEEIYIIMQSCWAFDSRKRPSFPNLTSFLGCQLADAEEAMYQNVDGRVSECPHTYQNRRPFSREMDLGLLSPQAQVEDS
In short: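 Kinase reaction at room temperature in HEPES 50 mM pH 7.0 with 10 mM MgCl2, 1 mM DTT: 0.011 nM FLT3, 1 mM ATP, 500 nM biotinylated TK substrate, 0.5% DMSO. After 60 min, HTRF read as 665/620 nm ratio; IC50 from fit of percent control activity versus log concentration.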

T1 sequence (O60674 826-1132): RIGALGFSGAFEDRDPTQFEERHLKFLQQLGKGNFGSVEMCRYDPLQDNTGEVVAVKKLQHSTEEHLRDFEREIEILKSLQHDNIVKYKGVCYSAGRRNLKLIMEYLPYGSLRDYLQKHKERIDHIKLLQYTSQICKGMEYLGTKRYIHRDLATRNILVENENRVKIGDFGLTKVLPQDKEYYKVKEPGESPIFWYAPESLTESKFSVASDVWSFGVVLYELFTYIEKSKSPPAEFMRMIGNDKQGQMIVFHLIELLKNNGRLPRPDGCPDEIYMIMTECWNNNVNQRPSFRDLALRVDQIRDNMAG
T2 sequence (O60674 536-812 V617F/W659A/W777A/F794H): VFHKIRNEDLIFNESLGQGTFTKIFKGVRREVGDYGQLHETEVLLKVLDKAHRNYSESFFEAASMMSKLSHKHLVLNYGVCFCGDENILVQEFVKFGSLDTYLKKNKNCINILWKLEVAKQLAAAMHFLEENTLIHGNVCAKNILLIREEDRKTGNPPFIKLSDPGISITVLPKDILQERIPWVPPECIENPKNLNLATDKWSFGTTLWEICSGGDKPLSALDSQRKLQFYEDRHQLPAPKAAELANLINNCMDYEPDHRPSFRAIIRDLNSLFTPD

Work on `[2H]C([2H])([2H])n1cc(-c2[nH]c3ncc4c(c3c2-c2ccc3c(c2)COC3(C)C)n([C@@H]2CC[C@@H](NC(=O)OC)C2)c(=O)n4C)c(F)n1` [Example 11, Methyl ((1R,3R)-3-(8-(1,1-dimethyl-1,3-dihydroisobenzofuran-5-yl)-7-(3-fluoro-1-(methyl-d3)-1H-pyrazol-4-yl)-3-methyl-2-oxo-3,6-dihydroimidazo[4,5-d]pyrrolo[2,3-b]pyridin-1(2H)-yl)cyclopentyl)carbamate] yielded an IC50 ([1]; Table A) greater than 1000 nM, an IC50 ([1]; Table C) greater than 1000 nM and an IC50 ([2]; Table A) of no more than 10 nM. It also gave an IC50 ([2]; Table C) of no more than 10 nM and an IC50 (FLT3) greater than 2500 nM.
With `[2H]C([2H])([2H])n1c(=O)n([C@@H]2CC[C@@H](NC(=O)OC)C2)c2c3c(-c4ccc5c(c4)COC5(C)C)c(-c4cn(CC(F)F)nc4F)[nH]c3ncc21` [Example 12, Methyl ((1R,3R)-3-(7-(1-(2,2-difluoroethyl)-3-fluoro-1H-pyrazol-4-yl)-8-(1,1-dimethyl-1,3-dihydroisobenzofuran-5-yl)-3-(methyl-d3)-2-oxo-3,6-dihydroimidazo[4,5-d]pyrrolo[2,3-b]pyridin-1(2H)-yl)cyclopentyl)carbamate] the IC50 ([1]; Table A) was greater than 1000 nM, the IC50 ([1]; Table C) was greater than 1000 nM and the IC50 ([2]; Table A) was no more than 10 nM. For the same compound, the IC50 ([2]; Table C) was no more than 10 nM and the IC50 (FLT3) was greater than 2500 nM.
For `[2H]C([2H])([2H])n1cc(-c2[nH]c3ncc4c(c3c2-c2ccc3c(cnn3C(C)C)c2)n([C@@H]2CC[C@@H](NC(=O)OC)C2)c(=O)n4C([2H])([2H])[2H])c(F)n1` [Example 13, Methyl ((1R,3R)-3-(7-(3-fluoro-1-(methyl-d3)-1H-pyrazol-4-yl)-8-(1-isopropyl-1H-indazol-5-yl)-3-(methyl-d3)-2-oxo-3,6-dihydroimidazo[4,5-d]pyrrolo[2,3-b]pyridin-1(2H)-yl)cyclopentyl)carbamate], the IC50 ([1]; Table A) was greater than 1000 nM, the IC50 ([1]; Table C) was greater than 1000 nM and the IC50 ([2]; Table A) was no more than 10 nM. It also gave an IC50 ([2]; Table C) of no more than 10 nM and an IC50 (FLT3) greater than 2500 nM.
`[2H]C([2H])([2H])n1cc(-c2[nH]c3ncc4c(c3c2-c2ccc3c(cnn3CC(F)F)c2)n([C@@H]2CC[C@@H](NC(=O)OC)C2)c(=O)n4C([2H])([2H])[2H])c(F)n1` [Example 14, Methyl ((1R,3R)-3-(8-(1-(2,2-difluoroethyl)-1H-indazol-5-yl)-7-(3-fluoro-1-(methyl-d3)-1H-pyrazol-4-yl)-3-(methyl-d3)-2-oxo-3,6-dihydroimidazo[4,5-d]pyrrolo[2,3-b]pyridin-1(2H)-yl)cyclopentyl)carbamate] showed an IC50 ([1]; Table A) greater than 1000 nM, an IC50 ([1]; Table C) greater than 1000 nM and an IC50 ([2]; Table A) of no more than 10 nM. The IC50 ([2]; Table C) was no more than 10 nM and the IC50 (FLT3) was 1250 to 2500 nM.
`[2H]C([2H])([2H])n1ncc2cc(-c3c(-c4cn(C([2H])([2H])C([2H])([2H])[2H])nc4F)[nH]c4ncc5c(c34)n([C@@H]3CC[C@@H](NC(=O)OC)C3)c(=O)n5C([2H])([2H])[2H])ccc21` [Example 15, Methyl ((1R,3R)-3-(7-(1-(ethyl-d5)-3-fluoro-1H-pyrazol-4-yl)-3-(methyl-d3)-8-(1-(methyl-d3)-1H-indazol-5-yl)-2-oxo-3,6-dihydroimidazo[4,5-d]pyrrolo[2,3-b]pyridin-1(2H)-yl)cyclopentyl)carbamate] gave an IC50 ([1]; Table A) greater than 1000 nM, an IC50 ([1]; Table C) greater than 1000 nM and an IC50 ([2]; Table A) of no more than 10 nM. The IC50 ([2]; Table C) was no more than 10 nM and the IC50 (FLT3) was 250 to 1250 nM.
Work on `[2H]C([2H])([2H])n1cc(-c2[nH]c3ncc4c(c3c2-c2ccc3c(cnn3C(C)C)c2)n([C@@H]2CC[C@@H](NC(=O)OC)C2)c(=O)n4C)c(F)n1` [Example 16, Methyl ((1R,3R)-3-(7-(3-fluoro-1-(methyl-d3)-1H-pyrazol-4-yl)-8-(1-isopropyl-1H-indazol-5-yl)-3-methyl-2-oxo-3,6-dihydroimidazo[4,5-d]pyrrolo[2,3-b]pyridin-1(2H)-yl)cyclopentyl)carbamate] yielded an IC50 ([1]; Table A) greater than 1000 nM, an IC50 ([1]; Table C) greater than 1000 nM and an IC50 ([2]; Table A) of no more than 10 nM. It also gave an IC50 ([2]; Table C) of no more than 10 nM and an IC50 (FLT3) of 1250 to 2500 nM.
For `[2H]C([2H])([2H])n1cc(-c2[nH]c3ncc4c(c3c2-c2cc(F)c3c(cnn3C([2H])([2H])[2H])c2)n([C@@H]2CC[C@@H](NC(=O)OC)C2)c(=O)n4C([2H])([2H])[2H])c(F)n1` [Example 17, Methyl ((1R,3R)-3-(8-(7-fluoro-1-(methyl-d3)-1H-indazol-5-yl)-7-(3-fluoro-1-(methyl-d3)-1H-pyrazol-4-yl)-3-(methyl-d3)-2-oxo-3,6-dihydroimidazo[4,5-d]pyrrolo[2,3-b]pyridin-1(2H)-yl)cyclopentyl)carbamate], the IC50 ([1]; Table A) was greater than 1000 nM, the IC50 ([1]; Table C) was greater than 1000 nM and the IC50 ([2]; Table A) was no more than 10 nM. The IC50 ([2]; Table C) was no more than 10 nM and the IC50 (FLT3) was 1250 to 2500 nM.
`[2H]C([2H])([2H])n1cc(-c2[nH]c3ncc4c(c3c2-c2ccc3c(cnn3CC(F)F)c2)n([C@@H]2CC[C@@H](NC(=O)OC)C2)c(=O)n4C)c(F)n1` [Example 18, Methyl ((1R,3R)-3-(8-(1-(2,2-difluoroethyl)-1H-indazol-5-yl)-7-(3-fluoro-1-(methyl-d3)-1H-pyrazol-4-yl)-3-methyl-2-oxo-3,6-dihydroimidazo[4,5-d]pyrrolo[2,3-b]pyridin-1(2H)-yl)cyclopentyl)carbamate] showed an IC50 ([1]; Table A) greater than 1000 nM, an IC50 ([1]; Table C) greater than 1000 nM and an IC50 ([2]; Table A) of no more than 10 nM. It also gave an IC50 ([2]; Table C) of no more than 10 nM and an IC50 (FLT3) of 1250 to 2500 nM.
Work on `[2H]C([2H])([2H])n1c(=O)n([C@@H]2CC[C@@H](NC(=O)OC)C2)c2c3c(-c4ccc5c(c4)COC5(C)C)c(-c4cn(C([2H])([2H])C([2H])([2H])[2H])nc4F)[nH]c3ncc21` [Example 19, Methyl ((1R,3R)-3-(8-(1,1-dimethyl-1,3-dihydroisobenzofuran-5-yl)-7-(1-(ethyl-d5)-3-fluoro-1H-pyrazol-4-yl)-3-(methyl-d3)-2-oxo-3,6-dihydroimidazo[4,5-d]pyrrolo[2,3-b]pyridin-1(2H)-yl)cyclopentyl)carbamate] yielded an IC50 ([1]; Table A) greater than 1000 nM, an IC50 ([1]; Table C) greater than 1000 nM and an IC50 ([2]; Table A) of no more than 10 nM. It also gave an IC50 ([2]; Table C) of no more than 10 nM and an IC50 (FLT3) greater than 2500 nM.
